Each structure is given as a SMILES string. pEC50: −log10 of the molar value.

The target of test [1] is T1, human TREX2 (residues M44-A279) (Homo sapiens, UniProt Q9BQ50).
T1 construct: human TREX2 (residues M44-A279, expressed in E. coli); His-Tev (His tag with TEV protease site) (N); made in house; host or cells: E. coli
T1 sequence (Q9BQ50 44-279 isoform Q9BQ50-1): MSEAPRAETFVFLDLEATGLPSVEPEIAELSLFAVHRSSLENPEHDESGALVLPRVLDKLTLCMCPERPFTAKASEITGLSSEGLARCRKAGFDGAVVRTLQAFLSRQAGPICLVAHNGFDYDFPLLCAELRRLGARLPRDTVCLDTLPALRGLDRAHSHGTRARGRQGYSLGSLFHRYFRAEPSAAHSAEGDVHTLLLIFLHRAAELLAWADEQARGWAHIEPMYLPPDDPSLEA
The test is described as follows: TREX2 Biochemical Assay (fluorescence assay, degradation of dsDNA substrate). Particulars: 2.5 nM TREX2, 60 nM dsDNA substrate, 25 minutes at room temperature; read-out: hTREX2 EC50. A digest of the protocol: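 His-Tev-tagged human TREX2 (M44-A279, E. coli-expressed) at 2.5 nM final, with 60 nM TEX615/quencher-labelled dsDNA in pH 7.4 Tris buffer with MgCl2 and 1.0% DMSO, 10-point dose-response, 25 min at room temperature, then EDTA quench. Fluorescence read at 615 nm (ex 570 nm). IC50 from four-parameter fit against pre-quenched and no-inhibitor controls.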

Test [2] concerns the target T2, full length human TREX1 (Homo sapiens, UniProt Q9NSU2).
T2 construct: N-terminally His-Tev tagged full length human TREX1; His-Tev (His tag with TEV protease site) (N); made in house; host or cells: E. coli
T2 sequence (Q9NSU2 1-314): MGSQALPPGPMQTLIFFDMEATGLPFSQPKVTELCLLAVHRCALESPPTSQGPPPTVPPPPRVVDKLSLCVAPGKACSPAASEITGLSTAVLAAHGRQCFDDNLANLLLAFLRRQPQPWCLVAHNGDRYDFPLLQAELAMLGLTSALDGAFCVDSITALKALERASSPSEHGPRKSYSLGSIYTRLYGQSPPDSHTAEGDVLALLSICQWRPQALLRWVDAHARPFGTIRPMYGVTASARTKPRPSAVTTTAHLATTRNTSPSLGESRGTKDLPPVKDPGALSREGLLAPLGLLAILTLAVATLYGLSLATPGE
The test is described as follows: TREX1 Biochemical Assay (fluorescence assay, degradation of dsDNA substrate). Particulars: 150 pM TREX1, 60 nM dsDNA substrate, 25 minutes at room temperature; read-out: hTREX1 EC50. An outline of the steps: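 E. coli-expressed His-Tev-tagged full-length TREX1 (150 pM) with 60 nM quenched-fluorophore dsDNA in Tris pH 7.4, 150 mM NaCl, 100 mM MgCl2, 1% DMSO, 25 min room temperature, 10-point dose-response. EDTA stop; fluorescence 615 nm (ex 570 nm); IC50 from four-parameter fit against pre-quenched and no-inhibitor controls.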

One may read the pEC50 as −log10 of the EC50, conventionally taken in molar units. As to `O=C(O)CC[C@@H](c1ccccc1Cl)N(Cc1cccnc1)C(=O)c1cc(F)cc(F)c1` [Compound 244], the pEC50 was 4.00 to 5.00 in test [1] and more than 7.00 in test [2].

For `CC[C@H](c1cccc(OC)c1Cl)N(Cc1ccc(C(=O)O)nc1)C(=O)c1cc(F)cc(F)c1` [Compound 166], the pEC50 is 5.00 to 6.00 in test [1] and more than 7.00 in test [2].

As to `O=C(c1ncccn1)N(Cc1cccnc1)Cc1ccc(Cl)cc1Cl` [Compound 102], the values for the pEC50 in test [1] and in test [2] were less than 4.00 and less than 5.00, respectively.

Consider `CC[C@@H](c1cccc(Cl)c1Cl)N(Cc1cnc(C(=O)O)c(N)c1)C(=O)c1cc(F)cc(F)c1` [Compound 236], for which the results for the pEC50 in test [1] and in test [2] were more than 6.00 and more than 7.00, respectively.

Turning to `COc1ccccc1CN(Cc1cccnc1)C(=O)c1cccc(F)c1` [Compound 125], the negative logarithm of the EC50 (pEC50) is less than 4.00 in test [1] and less than 5.00 in test [2].

Regarding `O=C(c1cccc(F)c1)N(Cc1cccnc1)Cc1cc(Cl)cc(Cl)c1` [Compound 23], the pEC50 in test [1] was less than 4.00; in test [2], less than 5.00.

On to `Cc1ncc(CN(Cc2ccc(Cl)cc2Cl)C(=O)c2cccc(F)c2)cn1` [Compound 108], for which the pEC50 was less than 4.00 in test [1] and less than 5.00 in test [2].

Turning to `O=C(c1cccc(Br)c1)N(Cc1cccnc1)Cc1cc(Cl)cc(Cl)c1` [Compound 30], the pEC50 in test [1] is less than 4.00; in test [2], less than 5.00.

`COc1cc(C(=O)N(Cc2cccnc2)Cc2cc(Cl)cc(Cl)c2)cc(Br)c1OC` [Compound 47]: the pEC50 in test [1] was less than 4.00; in test [2], less than 5.00.
